Test results reported in publication PMC6409085, “Three odorant-binding proteins are involved in the behavioral response of Sogatella furcifera to rice plant volatiles” (PeerJ, 2019).
Where “and” joins values, the source holds several entries; their conditions need not be identical. Identical values can stand only once.

Columns and labels:
Assay in all cases: biochemical
Format in all cases: binding
SfurOBP3 = SfurOBP3 (Sogatella furcifera, UniProt V5T818); details: OBP3, three replicate columns
SfurOBP3, sequence (V5T818 entry or part of it): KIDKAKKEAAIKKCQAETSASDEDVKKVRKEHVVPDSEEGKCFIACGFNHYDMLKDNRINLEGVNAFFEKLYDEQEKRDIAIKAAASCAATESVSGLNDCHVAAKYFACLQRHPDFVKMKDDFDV
Protocol: (§1) Thirty-six rice odorants ([He et al., 2014]; [Wang et al., 2017]) and 1-N-phenyl-naphthylamine (1-NPN) were purchased from Sigma-Aldrich (St Louis, MO, USA). These odorants and 1-NPN were dissolved in high-performance liquid chromatography (HPLC) purify grade methanol for 1.0 mM as work solution.
(§2) Fluorescence competitive binding assays were performed on Tecan Spark 10M (Tecan Group Ltd., Männedorf, Switzerland) with the F96 Black ELIAS Plate (Sangon) ([Khuhro et al., 2017]; [Liu et al., 2017]). The solutions were excited at 337 nm and emission spectra were recorded between 390 and 490 nm. First, to test the binding constants of 1-NPN to the SfurOBPs, a 2.0 µM solution of protein in 50 mM Tris-HCl (pH = 7.4) was titrated with 1 mM 1-NPN to achieve virous concentrations. Next, the competitive binding of each odorant was measured using the 1-NPN as fluorescent reporter and odorant as competitor. The concentrations of protein and 1-NPN were both 2.0 µM, the odorant added after protein and 1-NPN added into the well of ELIAS Plate for 2 min. The final concentrations of each competitor were 2, 4, 6, 8, 10, 12, 14, 16, 18 and 20 µM. After 2 min of odorant added, the fluorescence intensity was measured and recorded. The volume of mixed solution in each well was maintained at 250 µL. Each interaction was performed in triplicates.
(§3) GraphPad Prism 7.0 software (GraphPad Software, Inc., La Jolla, CA, USA) was used to calculated and generated the binding constants (K1−NPN) of 1-NPN to SfurOBPs and relative Scatchard plots ([Ban et al., 2003]; [Li et al., 2016]). Dissociation constant (Ki) of each odorant to SfurOBP was computed from the corresponding IC50 value (the half maximal inhibitory concentration), using the following equation: Ki=[IC50]/(1 + [1-NPN]/K1−NPN), where [1-NPN] is the free concentration of 1-NPN and K1−NPN is the dissociation constant of the complex protein/1-NPN.

SfurOBP11 = SfurOBP11 (Sogatella furcifera, UniProt V5T6E3)
SfurOBP11, sequence (V5T6E3 entry or part of it): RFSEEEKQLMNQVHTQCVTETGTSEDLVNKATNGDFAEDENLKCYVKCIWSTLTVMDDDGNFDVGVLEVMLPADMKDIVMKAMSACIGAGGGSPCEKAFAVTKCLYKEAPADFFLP
Protocol: as §1, §2, §3

SfurOBP1 = SfurOBP1 (Sogatella furcifera, UniProt V5T8N5); details: OBP1, three replicate columns
SfurOBP1, sequence (V5T8N5 entry or part of it): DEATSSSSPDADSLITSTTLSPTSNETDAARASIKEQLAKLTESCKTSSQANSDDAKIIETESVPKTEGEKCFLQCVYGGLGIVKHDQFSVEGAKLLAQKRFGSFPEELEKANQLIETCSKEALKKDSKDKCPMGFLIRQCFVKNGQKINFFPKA
Protocol: as §1, §2, §3

SfurOBP2 = SfurOBP2 (Sogatella furcifera, UniProt V5T759)
SfurOBP2, sequence (V5T759 entry or part of it): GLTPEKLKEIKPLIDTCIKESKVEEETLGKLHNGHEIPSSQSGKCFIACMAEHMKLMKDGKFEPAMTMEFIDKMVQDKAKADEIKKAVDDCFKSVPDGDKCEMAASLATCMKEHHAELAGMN
Protocol: as §1, §2, §3

- Fluorescence competitive binding assay, fluorescence intensity (SfurOBP3; ligand concentration 2): 79169 and 74941 and 94761
- Fluorescence competitive binding assay, fluorescence intensity (SfurOBP3; ligand concentration 4): 75066 and 75962 and 116353
- Fluorescence competitive binding assay, fluorescence intensity (SfurOBP3; ligand concentration 6): 80726 and 113361 and 131059
- Fluorescence competitive binding assay, fluorescence intensity (SfurOBP3; ligand concentration 8): 127533 and 115294 and 124955
- Fluorescence competitive binding assay, fluorescence intensity (SfurOBP3; ligand concentration 10): 151439 and 140422 and 180514
- Fluorescence competitive binding assay, fluorescence intensity (SfurOBP3; ligand concentration 12): 128094 and 97542 and 122147
- Fluorescence competitive binding assay, fluorescence intensity (SfurOBP3; ligand concentration 14): 143468 and 130975 and 143763
- Fluorescence competitive binding assay, fluorescence intensity (SfurOBP3; ligand concentration 16): 147668 and 180253 and 155136
- Fluorescence competitive binding assay, fluorescence intensity (SfurOBP3; ligand concentration 18): 151347 and 96227 and 180613
- Fluorescence competitive binding assay, fluorescence intensity (SfurOBP3; ligand concentration 20): 179130 and 144685 and 179646
- Fluorescence intensity, fluorescence competitive binding assay, OBP11 (SfurOBP11; ligand concentration 2, replicate 1): 29421
- Fluorescence intensity, fluorescence competitive binding assay, OBP11 (SfurOBP11; ligand concentration 2, replicate 2): 25881
- Fluorescence intensity, fluorescence competitive binding assay, OBP11 (SfurOBP11; ligand concentration 2, replicate 3): 28224
- Fluorescence intensity, fluorescence competitive binding assay, OBP11 (SfurOBP11; ligand concentration 4, replicate 1): 30123
- Fluorescence intensity, fluorescence competitive binding assay, OBP11 (SfurOBP11; ligand concentration 4, replicate 2): 33254
- Fluorescence intensity, fluorescence competitive binding assay, OBP11 (SfurOBP11; ligand concentration 4, replicate 3): 33112
- Fluorescence intensity, fluorescence competitive binding assay, OBP11 (SfurOBP11; ligand concentration 6, replicate 1): 36335
- Fluorescence intensity, fluorescence competitive binding assay, OBP11 (SfurOBP11; ligand concentration 6, replicate 2): 36906
- Fluorescence intensity, fluorescence competitive binding assay, OBP11 (SfurOBP11; ligand concentration 6, replicate 3): 37537
- Fluorescence intensity, fluorescence competitive binding assay, OBP11 (SfurOBP11; ligand concentration 8, replicate 1): 38631
- Fluorescence intensity, fluorescence competitive binding assay, OBP11 (SfurOBP11; ligand concentration 8, replicate 2): 37383
- Fluorescence intensity, fluorescence competitive binding assay, OBP11 (SfurOBP11; ligand concentration 8, replicate 3): 37911
- Fluorescence intensity, fluorescence competitive binding assay, OBP11 (SfurOBP11; ligand concentration 10, replicate 1): 41192
- Fluorescence intensity, fluorescence competitive binding assay, OBP11 (SfurOBP11; ligand concentration 10, replicate 2): 43341
- Fluorescence intensity, fluorescence competitive binding assay, OBP11 (SfurOBP11; ligand concentration 10, replicate 3): 42267
- Fluorescence intensity, fluorescence competitive binding assay, OBP11 (SfurOBP11; ligand concentration 12, replicate 1): 42172
- Fluorescence intensity, fluorescence competitive binding assay, OBP11 (SfurOBP11; ligand concentration 12, replicate 2): 43002
- Fluorescence intensity, fluorescence competitive binding assay, OBP11 (SfurOBP11; ligand concentration 12, replicate 3): 44132
- Fluorescence intensity, fluorescence competitive binding assay, OBP11 (SfurOBP11; ligand concentration 14, replicate 1): 50939
- Fluorescence intensity, fluorescence competitive binding assay, OBP11 (SfurOBP11; ligand concentration 14, replicate 2): 48639
- Fluorescence intensity, fluorescence competitive binding assay, OBP11 (SfurOBP11; ligand concentration 14, replicate 3): 49789
- Fluorescence intensity, fluorescence competitive binding assay, OBP11 (SfurOBP11; ligand concentration 16, replicate 1): 53380
- Fluorescence intensity, fluorescence competitive binding assay, OBP11 (SfurOBP11; ligand concentration 16, replicate 2): 53280
- Fluorescence intensity, fluorescence competitive binding assay, OBP11 (SfurOBP11; ligand concentration 16, replicate 3): 53495
- Fluorescence intensity, fluorescence competitive binding assay, OBP11 (SfurOBP11; ligand concentration 18, replicate 1): 69760
- Fluorescence intensity, fluorescence competitive binding assay, OBP11 (SfurOBP11; ligand concentration 18, replicate 2): 71076
- Fluorescence intensity, fluorescence competitive binding assay, OBP11 (SfurOBP11; ligand concentration 18, replicate 3): 64769
- Fluorescence intensity, fluorescence competitive binding assay, OBP11 (SfurOBP11; ligand concentration 20, replicate 1): 67623
- Fluorescence intensity, fluorescence competitive binding assay, OBP11 (SfurOBP11; ligand concentration 20, replicate 2): 62432
- Fluorescence intensity, fluorescence competitive binding assay, OBP11 (SfurOBP11; ligand concentration 20, replicate 3): 62669
- Fluorescence competitive binding assay, fluorescence intensity (SfurOBP1; ligand concentration 2 (μM)): 12147 and 12451 and 12785
- Fluorescence competitive binding assay, fluorescence intensity (SfurOBP1; ligand concentration 4 (μM)): 16267 and 16004 and 15123
- Fluorescence competitive binding assay, fluorescence intensity (SfurOBP1; ligand concentration 6 (μM)): 22521 and 20565 and 17849
- Fluorescence competitive binding assay, fluorescence intensity (SfurOBP1; ligand concentration 8 (μM)): 45300 and 22408 and 22243
- Fluorescence competitive binding assay, fluorescence intensity (SfurOBP1; ligand concentration 10 (μM)): 28286 and 29968 and 28368
- Fluorescence competitive binding assay, fluorescence intensity (SfurOBP1; ligand concentration 12 (μM)): 32121 and 35150 and 30012
- Fluorescence competitive binding assay, fluorescence intensity (SfurOBP1; ligand concentration 14 (μM)): 38613 and 36070 and 36799
- Fluorescence competitive binding assay, fluorescence intensity (SfurOBP1; ligand concentration 16 (μM)): 34740 and 38687 and 36378
- Fluorescence competitive binding assay, fluorescence intensity (SfurOBP1; ligand concentration 18 (μM)): 40518 and 49298 and 40325
- Fluorescence competitive binding assay, fluorescence intensity (SfurOBP1; ligand concentration 20 (μM)): 47871 and 41141 and 44944
- Fluorescence competitive binding assay, OBP2 (raw fluorescence reading) (SfurOBP2; ligand concentration 2 (unit not given), replicate column 1 of 3): 36028
- Fluorescence competitive binding assay, OBP2 (raw fluorescence reading) (SfurOBP2; ligand concentration 2 (unit not given), replicate column 2 of 3): 29538
- Fluorescence competitive binding assay, OBP2 (raw fluorescence reading) (SfurOBP2; ligand concentration 2 (unit not given), replicate column 3 of 3): 32173
- Fluorescence competitive binding assay, OBP2 (raw fluorescence reading) (SfurOBP2; ligand concentration 4 (unit not given), replicate column 1 of 3): 32085
- Fluorescence competitive binding assay, OBP2 (raw fluorescence reading) (SfurOBP2; ligand concentration 4 (unit not given), replicate column 2 of 3): 39967
- Fluorescence competitive binding assay, OBP2 (raw fluorescence reading) (SfurOBP2; ligand concentration 4 (unit not given), replicate column 3 of 3): 36772
- Fluorescence competitive binding assay, OBP2 (raw fluorescence reading) (SfurOBP2; ligand concentration 6 (unit not given), replicate column 1 of 3): 51385
- Fluorescence competitive binding assay, OBP2 (raw fluorescence reading) (SfurOBP2; ligand concentration 6 (unit not given), replicate column 2 of 3): 38065
- Fluorescence competitive binding assay, OBP2 (raw fluorescence reading) (SfurOBP2; ligand concentration 6 (unit not given), replicate column 3 of 3): 41844
- Fluorescence competitive binding assay, OBP2 (raw fluorescence reading) (SfurOBP2; ligand concentration 8 (unit not given), replicate column 1 of 3): 39886
- Fluorescence competitive binding assay, OBP2 (raw fluorescence reading) (SfurOBP2; ligand concentration 8 (unit not given), replicate column 2 of 3): 44063
- Fluorescence competitive binding assay, OBP2 (raw fluorescence reading) (SfurOBP2; ligand concentration 8 (unit not given), replicate column 3 of 3): 42977
- Fluorescence competitive binding assay, OBP2 (raw fluorescence reading) (SfurOBP2; ligand concentration 10 (unit not given), replicate column 1 of 3): 53038
- Fluorescence competitive binding assay, OBP2 (raw fluorescence reading) (SfurOBP2; ligand concentration 10 (unit not given), replicate column 2 of 3): 51904
- Fluorescence competitive binding assay, OBP2 (raw fluorescence reading) (SfurOBP2; ligand concentration 10 (unit not given), replicate column 3 of 3): 31312
- Fluorescence competitive binding assay, OBP2 (raw fluorescence reading) (SfurOBP2; ligand concentration 12 (unit not given), replicate column 1 of 3): 66556
- Fluorescence competitive binding assay, OBP2 (raw fluorescence reading) (SfurOBP2; ligand concentration 12 (unit not given), replicate column 2 of 3): 51896
- Fluorescence competitive binding assay, OBP2 (raw fluorescence reading) (SfurOBP2; ligand concentration 12 (unit not given), replicate column 3 of 3): 78968
- Fluorescence competitive binding assay, OBP2 (raw fluorescence reading) (SfurOBP2; ligand concentration 14 (unit not given), replicate column 1 of 3): 59847
- Fluorescence competitive binding assay, OBP2 (raw fluorescence reading) (SfurOBP2; ligand concentration 14 (unit not given), replicate column 2 of 3): 56230
- Fluorescence competitive binding assay, OBP2 (raw fluorescence reading) (SfurOBP2; ligand concentration 14 (unit not given), replicate column 3 of 3): 65733
- Fluorescence competitive binding assay, OBP2 (raw fluorescence reading) (SfurOBP2; ligand concentration 16 (unit not given), replicate column 1 of 3): 57526
- Fluorescence competitive binding assay, OBP2 (raw fluorescence reading) (SfurOBP2; ligand concentration 16 (unit not given), replicate column 2 of 3): 53371
- Fluorescence competitive binding assay, OBP2 (raw fluorescence reading) (SfurOBP2; ligand concentration 16 (unit not given), replicate column 3 of 3): 59678
- Fluorescence competitive binding assay, OBP2 (raw fluorescence reading) (SfurOBP2; ligand concentration 18 (unit not given), replicate column 1 of 3): 69952
- Fluorescence competitive binding assay, OBP2 (raw fluorescence reading) (SfurOBP2; ligand concentration 18 (unit not given), replicate column 2 of 3): 81927
- Fluorescence competitive binding assay, OBP2 (raw fluorescence reading) (SfurOBP2; ligand concentration 18 (unit not given), replicate column 3 of 3): 73816
- Fluorescence competitive binding assay, OBP2 (raw fluorescence reading) (SfurOBP2; ligand concentration 20 (unit not given), replicate column 1 of 3): 72726
- Fluorescence competitive binding assay, OBP2 (raw fluorescence reading) (SfurOBP2; ligand concentration 20 (unit not given), replicate column 2 of 3): 69859
- Fluorescence competitive binding assay, OBP2 (raw fluorescence reading) (SfurOBP2; ligand concentration 20 (unit not given), replicate column 3 of 3): 85793
SMILES: CCCCCCCCCCCCCCCC(=O)OC [MH(methyl hexadecanoate)]
